Measured values published in paper PMC7200626, “Nek7 conformational flexibility and inhibitor binding probed through protein engineering of the R-spine” (Biochemical Journal, 2020).

Columns and labels:
[1] = molecular target: T1, Nek7^SRS (Homo sapiens, UniProt Q8TDX7, L180F/L86H/Y97F); assay: X-ray co-crystal structure, […] Å; IC50 from LabChip EZ Reader kinase assay; format: biochemical
T1 construct: Nek7 strong R-spine mutant, C-terminal non-cleavable His6-tag

[2] = molecular target: T2, Nek7^WT (Homo sapiens, UniProt Q8TDX7); assay: as above; format: biochemical
T2 construct: wild-type Nek7, C-terminal non-cleavable His6-tag
T2 sequence (Q8TDX7 whole entry): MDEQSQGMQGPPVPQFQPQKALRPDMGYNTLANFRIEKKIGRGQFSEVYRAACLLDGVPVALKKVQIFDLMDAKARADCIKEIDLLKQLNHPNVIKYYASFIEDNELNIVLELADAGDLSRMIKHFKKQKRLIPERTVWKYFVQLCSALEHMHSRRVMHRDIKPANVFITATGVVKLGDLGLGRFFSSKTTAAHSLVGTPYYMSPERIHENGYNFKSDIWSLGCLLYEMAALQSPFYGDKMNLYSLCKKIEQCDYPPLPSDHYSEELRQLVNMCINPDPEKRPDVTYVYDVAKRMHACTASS

T1 sequence (Q8TDX7 whole entry L86H/Y97F/L180F): as the sequence (Q8TDX7 whole entry) above, with L86H, Y97F, L180F counted along it

IC50 [1]: 40.1 µM
IC50 [2]: 79 µM
SMILES: CN(C)CCCNS(=O)(=O)c1cccc(Nc2nc(OCC3CCCCC3)c3nc[nH]c3n2)c1 [compound 51]
